Measurements taken from patent US10077261B2, “Imidazolin-5-one derivative useful as FASN inhibitors for the treatment of cancer” (Janssen Pharmaceutica NV, priority 2012, dated 2018).

How the values were obtained:
[1] = target: Fatty Acid Synthase Keto-reductase Domain (FASN KR) (Homo sapiens, UniProt P49327); assay: Fatty Acid Synthase keto-reductase domain (FASN KR) inhibition, NADPH oxidation at 340 nm
Procedure: After 20 minutes incubation at room temperature the plate was measured again (T2).
The decrease in absorbance was calculated as (Absorbance before incubation T1)−(Absorbance following incubation T2).
A plot of Controlmin versus test compound concentration was fitted to a 4-parameter logistic curve using a non-linear least squares regression method.

[2] = target: T1, hFASN enzyme (full length) (Homo sapiens, UniProt P49327); assay: Fatty Acid Synthase (FASN) inhibition scintillation proximity assay; assay type: biochemical; conditions: for inhibition at 10 µM: read-out: Human FASN % inhibition @ 10 μM, 10 μM test compound; for IC50: read-out: Human FASN pIC50 (converted)
T1 construct: 10 μL hFASN enzyme (full length, 300 ng, purified in house); made in house
T1 sequence (P49327 whole entry): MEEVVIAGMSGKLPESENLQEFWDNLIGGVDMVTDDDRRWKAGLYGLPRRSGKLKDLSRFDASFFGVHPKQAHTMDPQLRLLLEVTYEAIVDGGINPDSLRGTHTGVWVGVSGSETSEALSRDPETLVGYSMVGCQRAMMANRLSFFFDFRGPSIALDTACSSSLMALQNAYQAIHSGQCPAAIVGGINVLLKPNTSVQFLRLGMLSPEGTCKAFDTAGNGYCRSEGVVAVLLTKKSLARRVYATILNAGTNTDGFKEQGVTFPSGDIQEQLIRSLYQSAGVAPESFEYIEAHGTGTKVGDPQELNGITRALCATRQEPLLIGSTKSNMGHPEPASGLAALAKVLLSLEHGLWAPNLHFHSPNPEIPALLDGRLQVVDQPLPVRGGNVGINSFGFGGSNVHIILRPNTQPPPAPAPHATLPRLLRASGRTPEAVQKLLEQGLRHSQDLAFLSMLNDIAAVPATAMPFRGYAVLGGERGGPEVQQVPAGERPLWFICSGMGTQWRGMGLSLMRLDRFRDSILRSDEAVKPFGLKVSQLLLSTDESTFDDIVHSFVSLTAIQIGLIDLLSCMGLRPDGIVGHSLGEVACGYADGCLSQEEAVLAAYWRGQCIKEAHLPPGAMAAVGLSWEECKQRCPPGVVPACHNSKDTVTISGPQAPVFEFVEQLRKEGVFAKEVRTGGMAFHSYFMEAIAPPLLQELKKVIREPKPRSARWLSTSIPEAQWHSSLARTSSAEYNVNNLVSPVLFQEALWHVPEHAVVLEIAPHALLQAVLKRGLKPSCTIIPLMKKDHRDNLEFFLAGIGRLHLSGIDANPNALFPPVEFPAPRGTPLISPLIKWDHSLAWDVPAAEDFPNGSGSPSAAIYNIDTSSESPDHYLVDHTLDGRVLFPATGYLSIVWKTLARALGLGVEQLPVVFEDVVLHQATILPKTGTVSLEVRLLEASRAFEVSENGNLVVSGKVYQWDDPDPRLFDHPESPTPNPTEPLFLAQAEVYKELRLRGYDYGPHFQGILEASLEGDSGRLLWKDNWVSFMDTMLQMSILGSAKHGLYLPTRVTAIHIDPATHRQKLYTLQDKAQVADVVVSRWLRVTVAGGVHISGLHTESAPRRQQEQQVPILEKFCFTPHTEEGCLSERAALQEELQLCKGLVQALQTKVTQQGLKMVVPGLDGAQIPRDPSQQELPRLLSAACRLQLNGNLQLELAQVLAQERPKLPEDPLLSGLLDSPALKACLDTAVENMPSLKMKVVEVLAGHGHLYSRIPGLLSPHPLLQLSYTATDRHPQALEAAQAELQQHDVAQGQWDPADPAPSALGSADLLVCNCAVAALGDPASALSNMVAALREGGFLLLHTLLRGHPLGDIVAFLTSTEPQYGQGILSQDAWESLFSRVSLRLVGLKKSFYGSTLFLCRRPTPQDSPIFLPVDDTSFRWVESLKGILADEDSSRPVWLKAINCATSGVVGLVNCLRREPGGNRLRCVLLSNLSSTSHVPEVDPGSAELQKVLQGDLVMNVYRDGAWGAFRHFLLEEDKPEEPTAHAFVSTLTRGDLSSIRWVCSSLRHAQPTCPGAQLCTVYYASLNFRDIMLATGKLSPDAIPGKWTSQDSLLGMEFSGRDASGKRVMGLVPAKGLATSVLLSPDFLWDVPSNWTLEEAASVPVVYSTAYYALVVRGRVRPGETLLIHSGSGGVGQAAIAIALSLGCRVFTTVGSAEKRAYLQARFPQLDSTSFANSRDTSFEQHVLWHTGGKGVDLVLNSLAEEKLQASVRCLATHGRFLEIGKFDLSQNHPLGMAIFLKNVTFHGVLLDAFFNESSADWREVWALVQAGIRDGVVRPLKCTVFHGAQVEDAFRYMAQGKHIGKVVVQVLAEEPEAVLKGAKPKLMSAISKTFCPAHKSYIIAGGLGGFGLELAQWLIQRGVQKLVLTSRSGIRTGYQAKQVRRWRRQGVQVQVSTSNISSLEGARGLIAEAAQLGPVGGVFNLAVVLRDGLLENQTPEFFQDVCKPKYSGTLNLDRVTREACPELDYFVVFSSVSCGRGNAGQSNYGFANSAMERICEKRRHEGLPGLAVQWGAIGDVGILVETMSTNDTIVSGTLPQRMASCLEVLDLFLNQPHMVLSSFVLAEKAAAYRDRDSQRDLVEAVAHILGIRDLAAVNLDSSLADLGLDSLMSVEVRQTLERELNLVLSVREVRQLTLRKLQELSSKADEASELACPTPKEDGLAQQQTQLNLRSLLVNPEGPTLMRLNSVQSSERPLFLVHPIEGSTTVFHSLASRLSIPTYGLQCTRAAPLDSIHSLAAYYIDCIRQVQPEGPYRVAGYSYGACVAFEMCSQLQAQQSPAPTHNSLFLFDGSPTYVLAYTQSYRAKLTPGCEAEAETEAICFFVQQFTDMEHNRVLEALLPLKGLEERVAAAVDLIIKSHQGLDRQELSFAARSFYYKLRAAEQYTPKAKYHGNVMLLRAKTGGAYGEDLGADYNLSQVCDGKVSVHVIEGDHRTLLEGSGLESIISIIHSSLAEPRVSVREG
Procedure, shortened: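 Compounds at 0.01–30 μM were mixed with 300 ng purified full-length enzyme in 100 mM KH2PO4 pH 7.5, 1 mM DTT. Substrates ³H-acetyl-CoA and malonyl-CoA were then converted, and bead addition stopped the reaction. Signal was normalised to low and high plate controls and fitted by 4-parameter nonlinear regression.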

A2780 ovarian cells [3] = assay: A2780 ovarian cell proliferation assay in lipid reduced medium, without palmitate (MTT); assay type: cell-based; conditions: Homo sapiens, A2780, 96 h; read-out: pIC50 A2780 Ovarian Cell, Without Palmitate (converted)
A2780 ovarian cells [4] = assay: A2780 ovarian cell proliferation assay in lipid reduced medium, with palmitate (MTT); assay type: cell-based; conditions: Homo sapiens, A2780, 96 h; read-out: pIC50 A2780 Ovarian Cell, With Palmitate (converted)
Procedure, shortened: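 Seeded cells were switched next day to lipid-reduced serum, exposed to compound and 25 μM palmitate complexed with fatty-acid-free BSA, and incubated 96 h. Proliferation was then determined by MTT absorbance at 544 nm, with a best-fit curve of signal against concentration.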

[5] = test system: PC-3M-Luc-C6 prostate cells; assay: In vitro PC-3M-Luc-C6 prostate cell proliferation assay in lipid reduced medium; assay type: cell-based; conditions: 96 h, read-out: pIC50 PC-3M-Luc-C6 prostate cell (converted)
[6] = test system: LNCaP-Vancouver prostate cells; assay: In vitro LNCaP Vancouver prostate cell proliferation assay in lipid reduced medium; assay type: cell-based; conditions: read-out: pIC50 LNCaP_Vancouver prostate cell (converted)

Fatty Acid Synthase Keto-reductase Domain (FASN KR), sequence (P49327 whole entry, the tested form may be a part): as the sequence (P49327 whole entry) above

Row | Structure (SMILES) | IC50 [1] | inhibition at 10 µM [2] | IC50 [2] | IC50 (A2780 ovarian cells [3]) | IC50 (A2780 ovarian cells [4]) | IC50 [5] | IC50 [6]
1 | Cc1cc(-c2cccc(NS(=O)(=O)C3CC3)c2)ccc1C1=NC2(CC2)C(=O)N1C[C@@H]1CCN(C(=O)C2CC2)C1 [compound 613, N-[4′-(6-{[(3R)-1-(Cyclopropylcarbonyl)pyrrolidin-3-yl]methyl}-7-oxo-4,6-diazaspiro[2.4]hept-4-en-5-yl)-3′-methylbiphenyl-3-yl]cyclopropanesulfonamide] | 229 nM | 102% | 115 nM | 107 nM | > 10000 nM | 97.7 nM | 851 nM
2 | O=C(C1CC1)N1CC(CN2C(=O)C3(CC3)N=C2c2ccc(-c3cccc(NS(=O)(=O)C4CC4)c3)cc2F)C1 [compound 619, N-[4′-(6-{[1-(Cyclopropylcarbonyl)azetidin-3-yl]methyl}-7-oxo-4,6-diazaspiro[2.4]hept-4-en-5-yl)-3′-fluorobiphenyl-3-yl]cyclopropanesulfonamide] | 380 nM | 101% | 186 nM | ~224 nM | > 10000 nM | 631 nM | 3240 nM
3 | N#Cc1ccc2ccc(-c3ccc(C4=NC5(CC5)C(=O)N4CC4CN(C(=O)C5(O)CC5)C4)c(F)c3)cc2c1 [compound 621, 7-{3-Fluoro-4-[6-({1-[(1-hydroxycyclopropyl)carbonyl]azetidin-3-yl}methyl)-7-oxo-4,6-diazaspiro[2.4]hept-4-en-5-yl]phenyl}naphthalene-2-carbonitrile] | 513 nM | 92% | 617 nM | 708 nM | 6170 nM | 437 nM | 2140 nM
4 | Cc1cc(-c2ccc(-c3ccnn3C)cc2)ccc1C1=NC2(CC2)C(=O)N1C[C@@H]1CCN(C(=O)C2(C)CC2)C1 [compound 623, 6-({(3R)-1-[(1-Methylcyclopropyl)carbonyl]pyrrolidin-3-yl}methyl)-5-[3-methyl-4′-(1-methyl-1H-pyrazol-5-yl)biphenyl-4-yl]-4,6-diazaspiro[2.4]hept-4-en-7-one] | 234 nM | 101% | 145 nM | ~32.4 nM | 5130 nM | 123 nM | 562 nM
5 | Cc1cc(-c2ccc3c(c2)ncn3C)ccc1C1=NC2(CC2)C(=O)N1CC1CN(C(=O)C2(C)CC2)C1 [compound 627, 6-({1-[(1-Methylcyclopropyl)carbonyl]azetidin-3-yl}methyl)-5-[2-methyl-4-(1-methyl-1H-benzimidazol-5-yl)phenyl]-4,6-diazaspiro[2.4]hept-4-en-7-one] | 126 nM | 105% | 107 nM | 12 nM | > 10000 nM | 47.9 nM | ~129 nM
6 | Cn1ncc2cc(-c3ccc(C4=NC5(CC5)C(=O)N4CC4CN(C(=O)C5(F)CC5)C4)c(F)c3)ccc21 [compound 637, 6-({1-[(1-Fluorocyclopropyl)carbonyl]azetidin-3-yl}methyl)-5-[2-fluoro-4-(1-methyl-1H-indazol-5-yl)phenyl]-4,6-diazaspiro[2.4]hept-4-en-7-one] | 871 nM | 99% | 120 nM | 85.1 nM | > 10000 nM | ~234 nM | 1820 nM
7 | O=C(C1CC1)N1CC(CN2C(=O)C3(CC3)N=C2c2ccc(-c3nc4cc(F)c(F)cc4s3)cc2F)C1 [compound 639, 6-{[1-(Cyclopropylcarbonyl)azetidin-3-yl]methyl}-5-[4-(5,6-difluoro-1,3-benzothiazol-2-yl)-2-fluorophenyl]-4,6-diazaspiro[2.4]hept-4-en-7-one] | 1450 nM | 97% | 282 nM | ~363 nM | > 10000 nM | 794 nM | 2340 nM

Next, values leading:

Row | IC50 [1] | inhibition at 10 µM [2] | IC50 [2] | IC50 (A2780 ovarian cells [3]) | IC50 (A2780 ovarian cells [4]) | IC50 [5] | IC50 [6] | Structure (SMILES)
8 | 676 nM | 99% | 186 nM | ~263 nM | > 10000 nM | 661 nM | 4790 nM | Cn1nc(CO)c2cc(-c3ccc(C4=NC5(CC5)C(=O)N4CC4CN(C(=O)C5CC5)C4)c(F)c3)ccc21 [compound 609, 6-{[1-(Cyclopropylcarbonyl)azetidin-3-yl]methyl}-5-{2-fluoro-4-[3-(hydroxymethyl)-1-methyl-1H-indazol-5-yl]phenyl}-4,6-diazaspiro[2.4]hept-4-en-7-one]
9 | 1050 nM | 98% | 324 nM | 501 nM | > 10000 nM | ~2340 nM | 3240 nM | O=C(Nc1cccc(-c2ccc(C3=NC4(CC4)C(=O)N3CC3CN(C(=O)C4CC4)C3)c(F)c2)c1)C1CC1 [compound 615, N-[4′-(6-{[1-(Cyclopropylcarbonyl)azetidin-3-yl]methyl}-7-oxo-4,6-diazaspiro[2.4]hept-4-en-5-yl)-3′-fluorobiphenyl-3-yl]cyclopropanecarboxamide]
10 | 1550 nM | 94% | 513 nM | 1820 nM | > 10000 nM | > 10000 nM | 3160 nM | N#Cc1ccc2ccc(-c3ccc(C4=NC5(CC5)C(=O)N4CC4CN(C(=O)C5CC5)C4)c(F)c3)cc2c1 [compound 616, 7-[4-(6-{[1-(Cyclopropylcarbonyl)azetidin-3-yl]methyl}-7-oxo-4,6-diazaspiro[2.4]hept-4-en-5-yl)-3-fluorophenyl]naphthalene-2-carbonitrile]
11 | 631 nM | 100% | 166 nM | 245 nM | > 10000 nM | 646 nM | 2570 nM | COc1ccc2ccc(-c3ccc(C4=NC5(CC5)C(=O)N4CC4CN(C(=O)C5(O)CC5)C4)c(F)c3)cc2c1 [compound 617, 5-[2-Fluoro-4-(7-methoxynaphthalen-2-yl)phenyl]-6-({1-[(1-hydroxycyclopropyl)carbonyl]azetidin-3-yl}methyl)-4,6-diazaspiro[2.4]hept-4-en-7-one]
12 | 1120 nM | 98% | 229 nM | 794 nM | > 10000 nM | ~2570 nM | 3470 nM | COc1ccc2ccc(-c3ccc(C4=NC5(CC5)C(=O)N4CC4CN(C(=O)C5CC5)C4)c(F)c3)cc2c1 [compound 618, 6-{[1-(Cyclopropylcarbonyl)azetidin-3-yl]methyl}-5-[2-fluoro-4-(7-methoxynaphthalen-2-yl)phenyl]-4,6-diazaspiro[2.4]hept-4-en-7-one]
13 | 1350 nM | 97% | 219 nM | 129 nM | > 10000 nM | 355 nM | 1020 nM | COc1cccc2cc(-c3ccc(C4=NC5(CC5)C(=O)N4CC4CN(C(=O)C5CC5)C4)c(F)c3)ccc12 [compound 635, 6-{[1-(Cyclopropylcarbonyl)azetidin-3-yl]methyl}-5-[2-fluoro-4-(5-methoxynaphthalen-2-yl)phenyl]-4,6-diazaspiro[2.4]hept-4-en-7-one]
14 | 1000 nM | 100% | 191 nM | ~195 nM | > 10000 nM | 479 nM | 1700 nM | O=C(C1CC1)N1CC(CN2C(=O)C3(CC3)N=C2c2ccc(-c3nc4cc(F)ccc4s3)cc2F)C1 [compound 638, 6-{[1-(Cyclopropylcarbonyl)azetidin-3-yl]methyl}-5-[2-fluoro-4-(5-fluoro-1,3-benzothiazol-2-yl)phenyl]-4,6-diazaspiro[2.4]hept-4-en-7-one]
